Measured values published in PMC10150366, “Discovery of an In Vivo Chemical Probe for BCL6 Inhibition by Optimization of Tricyclic Quinolinones” (Journal of Medicinal Chemistry, 2023).
≈ marks a conversion by molar mass, not a printed value. Where “and” joins values, the source holds several entries; their conditions need not be identical. Identical values can stand only once. Like-named read-outs stand apart in the source and are kept apart here.

Key:
[1] = Microsomal clearance, mouse liver microsomes
human BCL6 BTB domain = human BCL6 BTB domain (Homo sapiens, UniProt P41182); experiment: BCL6 TR-FRET assay; format: binding; conditions: for BCL6 TR-FRET pIC50 mean / IC90: Table S1; for IC90: read-out: BCL6 TR-FRET IC90 Geometric Mean
Description: 1. Supplementary experimental: protein production, purification and crystallography 1.1 BCL6 constructs used for assays and crystallography […]
cleavage site. For the TR-FRET assay, the Trx-6His-HRV3C-BCL6 protein construct was used without cleaving the tag, as a 6His was needed to bind to the anti-6His-Terbium antibody. […]
For both plasmid constructs described above, transformed BL21-AI E. coli cells were grown in LB media […]
Expression was carried out at 18 °C for 18 hours. Cells were harvested by centrifugation (5500 g for 30 minutes at 4 °C) and stored at -80 °C.
Cells were re-suspended in a buffer composed of 20 mM Tris pH 8, 250 mM NaCl, 1 mM MgCl2, 0.5 mM […]
lysed by sonication followed by centrifugation at 21,000 g for 45 minutes at 4 °C. […]
ResourceQ and gel filtration using a HiLoad 26/60 Superdex75 column in a buffer containing 20 mM HEPES […]
The final protein was assessed for purity and molar mass by SDS-PAGE and high-resolution mass spectrometry, respectively.
For the uncleaved Trx-6His-HRV3C-BCL6 protein construct to be used in TR-FRET, the protein was directly eluted from the HisTrap FF column without HRV-3C treatment, and submitted to Superdex75 gel filtration […]
Test compounds in DMSO or DMSO alone […]
concentration in 0.7% v/v DMSO final. […]

[2] = logD7.4 assay (Chrom log D method); format: physicochemical
Description: Calibration, validation and in-house compounds were prepared at 1mM in 10% DMSO / 90% Trizma solution (100mM Trizma in 75/25 methanol/water). 3 µL standard injections (with needle wash) of all calibration, validation and in-house samples were made onto a Phenomenex Luna C8 column (3µm, 100 x 4.6 mm, 100A, Phenomenex, Torrence, USA). Chromatographic separation at 30°C was carried out using
2 mL/min. The gradient was held at 0:100 water:organic for 0.8 minutes, then returned to the starting conditions of 95:5 water:organic for 0.2 minutes. The column was re-equilibrated for 5 minutes at the
starting conditions prior to the next injection.
Raw data was processed using Agilent Chemstation Rev.C.01.04.

[3] = target: T1, BCL6-SMRT (NCOR2) corepressor protein-protein interaction (Homo sapiens, UniProt P41182); experiment: NanoBRET cellular assay (HEK293T); format: cell-based; conditions: for IC90: read-out: BCL6 NanoBRET IC90 individual replicates
T1 construct: DNA encoding full length BCL6 and SMRT; expressed in transfected cells; host or cells: HEK293T
Description: Test compounds in DMSO or DMSO alone
concentration in 0.7% v/v DMSO final.
(also called NCOR2) corepressor protein-protein interaction. DNA encoding full length BCL6 and SMRT
fusion proteins BCL6-nanoLuc and SMRT-HaloTag, respectively. HEK293T cells were plated […] in T75
At the time of assay, compounds
dispensing (Labcyte Inc.). Frozen transfected HEK293T cells were thawed, centrifuged and freezing
DMSO final concentration.
After a short centrifugation the
(1st emission filter) / 450-80 nm (2nd emission filter). The % inhibition at each test concentration was
sigmoidal four-parameter logistic fit equation. […]

[4] = test system: Caco-2 human colon carcinoma cell line; conditions: pH 7.4
Description: Caco-2 apparent permeability (Papp) was determined in the Caco-2 human colon carcinoma cell line. Cells
were maintained in DMEM with 10% fetal bovine serum, penicillin, and streptomycin in a humidified
Cells were then plated onto a cell culture assembly plate
(Millipore, UK), and monolayer confluency was tested using a TEER electrode prior to the assay. Media
specified), 1% DMSO) in the appropriate apical and basal donor wells. HBSS buffer alone was placed in
acceptor wells. The Caco-2 plate was incubated for 2 h at 37 °C. Samples from the apical and basolateral
chambers were analyzed using a Waters (Milford, MA, US) TQ-S LC-MS/MS system.
Apparent permeability (Papp) was determined as follows:
𝐏𝐚𝐩𝐩 = 𝐀 (𝐜𝐦𝟐) × 𝐂 (𝛍𝐌) × 𝐑𝐚𝐭𝐞 𝐨𝐟 𝐃𝐢𝐟𝐟𝐮𝐬𝐢𝐨𝐧 (𝛍𝐌.𝐬𝐞𝐜 )
Where Vr = volume of receptical
A = surface area of monolayer
C0 = Initial compound concentration in donor

[5] = NMR aqueous solubility assay; conditions: HEPES buffer, aqueous with cosolvent or surfactant or cyclodextrin
Description: Supplementary experimental: physicochemical assays
0.5 mM TCEP, 10% D2O) was pipetted into the same well and mixed by up-down pipetting 3 times to create a 0.5 mM solution or suspension containing 5% DMSO. It was then separated by centrifugation (1000 rpm
The plate was then sealed and incubated at room temperature for 20 hours,
165 µL of the supernatant was transferred to a 3 mm NMR tube (Bruker, Part No. Z112272) using liquid handler SamplePro Tube SJ S (Bruker). The concentration of the solubilized compound in solubility sample
PBS (pH 7.4) with 1% DMSO-d6).
The detail of the NMR method is as following: NMR data was collected on a Bruker Avance Neo 600 spectrometer equipped with a 5 mm TCI-CryoProbe.
The sweep width was 6.2 ppm with O1P set to 8.8 ppm, and the FID contained 16k time-domain data points. Relaxation delay was set to 20 sec. Water signal was suppressed.

[6] = geometric mean of at least three replicates, read-out: BCL6 TR-FRET IC50
[7] = geometric mean of at least three replicates, read-out: NanoBRET IC50
[8] = single replicates, Table S2, read-out: BCL6 NanoBRET IC50 individual replicates

| Compound | CLint H/M/R ([1]; one value given, mouse microsomal clearance per text) [μLmin^-1mg^-1] | BCL6 TR-FRET pIC50 mean (human BCL6 BTB domain) | IC90 (human BCL6 BTB domain) [nM] | IC50 (human BCL6 BTB domain; [6]) [nM] | Measured logD7.4 [2] | BCL6 NanoBRET pIC50 mean ([3]; Table S2) | IC90 ([3]; Table S2) [nM] | IC50 [3, 7] [nM] | IC50 [3, 8] | Papp A→B [4] [×10⁻⁶ cm/s] | efflux ratio [4] | microsomal CLint at 0.5 h, 1 µM ([1]; female, CD1, mouse, liver microsomes, pH 7.4) [µL/min/mg] | IC50 (human BCL6 BTB domain; supplement, read-out: BCL6 TR-FRET IC50 Geometric Mean) [nM] | chromatographic logD ([2]; pH 7.4, read-out: Measured logD7.4) | solubility kinetic at 20 h [5] [µM] | IC90 ([3]; HEK-293T, Table S2) [nM] | decrease in cellular potency compared to CCT372064 ([3]; NanoBRET) [fold] | IC50 ([3]; supplement, read-out: BCL6 NanoBRET IC50 Geometric Mean) [nM] |
| --- | --- | --- | --- | --- | --- | --- | --- | --- | --- | --- | --- | --- | --- | --- | --- | --- | --- | --- |
| (2S)-10-((2-(3-acetyl-3,8-diazabicyclo[3.2.1]octan-8-yl)-5-chloropyrimidin-4-yl)amino)-2-cyclopropyl-3,3-difluoro-7-methyl-1,2,3,4-tetrahydro-[1,4]oxazepino[2,3-c]quinolin-6(7H)-one [compound 7] | 50 | 8.728 | 13.7 | 1.9 | 2.5 | 7.3871 | 284 | 41 | 28.2 nM and 47.9 nM and 51.1 nM | – | – | – | – | – | – | – | – | – |
| Cn1c(=O)c2c(c3cc(Nc4ccnc(Cl)c4Cl)ccc31)N[C@@H](C1CC1)C(F)(F)CO2 [compound 15, (S)-2-Cyclopropyl-10-((2,3-dichloropyridin-4-yl)amino)-3,3-difluoro-7-methyl-1,2,3,4-tetrahydro-[1,4]oxazepino[2,3-c]quinolin-6(7H)-one] | – | 7.873 | 109 | 13 | – | 7.1618 | – | 68 | 106 nM and 43.5 nM and 71 nM | 9.1 | 2.9 | 24 | 13.4 | 3.2 | 6 (≈ 2.8 µg/mL) | 796 | 5 | 68.9 |
